From patent publication US20240262803A1, “COMPOUNDS, COMPOSITIONS AND METHODS OF TREATING DISORDERS” (Chungdu Anticancer Bioscience Ltd, priority 2021, published 2024)
Like-named read-outs stand apart in the source and are kept apart here.

Key:
Format in all cases: cell-based
SW480 = assay: Minimal effective concentration that elicits polyploidy, SW480; settings: Homo sapiens, read-out: MECP: Minimal effective concentration that elicits polyploidy
[1] = test system: cervical cancer cell line Hela; assay: MTT assay of cellular proliferation, Hela; settings: Homo sapiens, read-out: EC50: Concentration that inhibits 50% of proliferation
Outline: (§1)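 First, mid-log cells are seeded in DMEM containing 5% FBS and grown 15˜24 h to 20˜30% confluence. Next, compounds are added across 1 nM to 10 μM. Finally, MTT is given for 3˜4 h, formazan is dissolved and read at A570 to derive EC50.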

[2] = test system: lung cancer cell line A549; assay: Minimal effective concentration that elicits polyploidy, A549; settings: Homo sapiens, read-out: MECP: Minimal effective concentration that elicits polyploidy
[3] = test system: lung cancer cell line NCI-H23; assay: Minimal effective concentration that elicits polyploidy, NCI-H23; settings: Homo sapiens, read-out: MECP: Minimal effective concentration that elicits polyploidy
[4] = test system: colon cancer cell line HCT116; assay: MTT assay of cellular proliferation, HCT116; settings: Homo sapiens, HCT-116, read-out: EC50: Concentration that inhibits 50% of proliferation
Outline: as §1

RPEMYC^H2B-GFP cells [5] = assay: Mechanism-informed phenotypic screening assay (mitotic arrest, polyploidy; GE IN-Cell Analyzer 2000); settings: 20 nM to 20 μM, 24, 48 or 72 hours, read-out: Mitotic Arrest (≥5%)
RPEMYC^H2B-GFP cells [6] = assay: as above; settings: 20 nM to 20 μM, 24, 48 or 72 hours, read-out: Min. Effective conc. for polyploidy (≥5%)
Outline: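 Cells expressing Histone 2B-EGFP (RPEMYC^H2B-GFP) were plated 18-24 h before exposure to compounds at 20 nM to 20 μM. At 24, 48 or 72 h, imaging scored mitotic arrest or change in DNA content. Value is the lowest concentration giving polyploid accumulation at 48 h.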

[7] = test system: colon cancer cell line HCT116; assay: Minimal effective concentration that elicits polyploidy, HCT116; settings: Homo sapiens, HCT-116, read-out: MECP: Minimal effective concentration that elicits polyploidy
[8] = test system: colon cancer cell line SW460; assay: MTT assay of cellular proliferation, SW460; settings: Homo sapiens, SW480; read-out: EC50: Concentration that inhibits 50% of proliferation
Outline: as §1

[9] = test system: breast cancer cell line MDA-MB-231; assay: MTT assay of cellular proliferation, MDA-MB-231; settings: Homo sapiens, read-out: EC50: Concentration that inhibits 50% of proliferation
Outline: as §1

[10] = test system: lung cancer cell line NCI-H23; assay: MTT assay of cellular proliferation, NCI-H23; settings: Homo sapiens, read-out: EC50: Concentration that inhibits 50% of proliferation
Outline: as §1

[11] = test system: cervical cancer cell line Hela; assay: Minimal effective concentration that elicits polyploidy, Hela; settings: Homo sapiens, read-out: MECP: Minimal effective concentration that elicits polyploidy
[12] = test system: liver cancer cell line T2 HCC; assay: Minimal effective concentration that elicits polyploidy, T2 HCC; settings: Mus musculus, read-out: MECP: Minimal effective concentration that elicits polyploidy
[13] = test system: lung cancer cell line A549; assay: MTT assay of cellular proliferation, A549; settings: Homo sapiens, read-out: EC50: Concentration that inhibits 50% of proliferation
Outline: as §1

[14] = test system: gastric cancer cell line NCI-N87; assay: Minimal effective concentration that elicits polyploidy, NCI-N87; settings: Homo sapiens, read-out: MECP: Minimal effective concentration that elicits polyploidy
[15] = test system: breast cancer cell line MDA-MB-231; assay: Minimal effective concentration that elicits polyploidy, MDA-MB-231; settings: Homo sapiens, read-out: MECP: Minimal effective concentration that elicits polyploidy
[16] = test system: gastric cancer cell line NCI-N87; assay: MTT assay of cellular proliferation, NCI-N87; settings: Homo sapiens, read-out: EC50: Concentration that inhibits 50% of proliferation
Outline: as §1

[17] = test system: liver cancer cell line T2 HCC; assay: MTT assay of cellular proliferation, T2 HCC; settings: Mus musculus, read-out: EC50: Concentration that inhibits 50% of proliferation
Outline: as §1

Structure (SMILES) | minimal effective concentration (SW480) [µM] | EC50 [1] [nM] | minimal effective concentration [2] [µM] | minimal effective concentration [3] [µM] | EC50 [4] [nM] | minimal effective concentration (RPEMYC^H2B-GFP cells [5]) [µM] | minimal effective concentration (RPEMYC^H2B-GFP cells [6]) [µM] | minimal effective concentration [7] [µM] | EC50 [8] [nM] | EC50 [9] [nM] | EC50 [10] [nM] | minimal effective concentration [11] [µM] | minimal effective concentration [12] [µM] | EC50 [13] [nM] | minimal effective concentration [14] [µM] | minimal effective concentration [15] [µM] | EC50 [16] [nM] | EC50 [17] [nM]
COc1cc(NC(C)=O)cc(Oc2ncccc2-c2ccnc(Cl)c2)c1 [Compound 46, N-(3-((2′-chloro-[3,4′-bipyridin]-2-yl)oxy)-5-methoxyphenyl)acetamide] | 0.001 to 1 | 1 to 1000 | 0.001 to 1 | 0.001 to 1 | 1 to 1000 | 1 | 1 | 0.001 to 1 | 1 to 1000 | 1 to 1000 | 1 to 1000 | 0.001 to 1 | 0.001 to 1 | 1 to 1000 | 0.001 to 1 | 0.001 to 1 | 1 to 1000 | 1 to 1000
COC(=O)c1cc(OC)cc(Oc2nccnc2-c2cccnc2)c1 [Compound 52, methyl 3-methoxy-5-((3-(pyridin-3-yl)pyrazin-2-yl)oxy)benzoate] | 0.001 to 1 | 1 to 1000 | 0.001 to 1 | 0.001 to 1 | 1 to 1000 | 1 | 1 | 0.001 to 1 | 1 to 1000 | 1 to 1000 | 1 to 1000 | 0.001 to 1 | 0.001 to 1 | 1000 to 10000 | 0.001 to 1 | 0.001 to 1 | 1 to 1000 | 1 to 1000
COc1cc(OC)cc(Oc2ncccc2-c2cc(C)ncn2)c1 [Compound 63, 4-(2-(3,5-dimethoxyphenoxy)pyridin-3-yl)-6-methylpyrimidine] | 0.001 to 1 | 1 to 1000 | 0.001 to 1 | 0.001 to 1 | 1 to 1000 | 1 | 1 | 0.001 to 1 | 1 to 1000 | 1 to 1000 | 1 to 1000 | 0.001 to 1 | 0.001 to 1 | 1 to 1000 | 0.001 to 1 | 0.001 to 1 | 1 to 1000 | 1 to 1000
